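All cell lines were grown in 96-well plates and treated with compound for 48 hours. Abbreviation: GI50, concentration required for 50% inhibition of growth.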 The source made the active and inactive calls. Cut-off read from the data, not from the text of the source: active = GI50 up to about 1.1 µM and inactive = higher.
Tests used:
Experiment in all cases: NCI tumour cell line growth inhibition, 48 h
[1] = system: A498
[2] = system: LOX IMVI
[3] = system: NCI-H23
[4] = system: KM12
[5] = system: NCI-H226
[6] = system: NCI-H460
[7] = system: MDA-N
[8] = system: M14
[9] = system: HL-60
[10] = system: SW-620
[11] = system: NCI/ADR-RES
[12] = system: RXF 393
[13] = system: CAKI-1
[14] = system: MOLT-4
[15] = system: SN12C
[16] = system: SF-295
[17] = system: HT-29
[18] = system: Malme-3M
[19] = system: UACC-62
[20] = system: OVCAR-8
[21] = system: Hs-578T
[22] = system: A549
[23] = system: HCT-15
[24] = system: CCRF-CEM
[25] = system: RPMI-8226
[26] = system: SR
[27] = system: SF-539
[28] = system: HCT-116
[29] = system: MDA-MB-435
[30] = system: K562
[31] = system: SF-268
[32] = system: HOP-62
[33] = system: OVCAR-4
[34] = system: TK-10
[35] = system: UO-31
[36] = system: MDA-MB-231
[37] = system: BT-549
[38] = system: PC-3
[39] = system: SK-MEL-5
[40] = system: COLO 205
[41] = system: MCF7
[42] = system: SNB-75
[43] = system: 786-0
[44] = system: SNB-19
[45] = system: OVCAR-3
[46] = system: IGROV-1
[47] = system: SK-MEL-28
[48] = system: SK-MEL-2
[49] = system: U-251
[50] = system: DU-145
[51] = system: UACC-257
[52] = system: SK-OV-3

COc1ccc(-n2c3c(c4cc(O)ccc42)Cc2ccccc2C3=O)cc1
GI50 [1]: 90.6 µM (inactive) | GI50 [2]: 35.9 µM (inactive) | GI50 [3]: > 100 µM (inactive) | GI50 [4]: 28.8 µM (inactive) | GI50 [5]: 63.7 µM (inactive) | GI50 [6]: 16.1 µM (inactive) | GI50 [7]: 65.6 µM (inactive) | GI50 [8]: 38.2 µM (inactive) | GI50 [9]: > 100 µM (inactive) | GI50 [10]: 57 µM (inactive) | GI50 [11]: 73.8 µM (inactive) | GI50 [12]: < 10 nM (active) | GI50 [13]: 30.2 µM (inactive) | GI50 [14]: 11.5 µM (inactive) | GI50 [15]: 57.3 µM (inactive) | GI50 [16]: 16.5 µM (inactive) | GI50 [17]: 53.2 µM (inactive) | GI50 [18]: > 100 µM (inactive) | GI50 [19]: 48.5 µM (inactive) | GI50 [20]: 48 µM (inactive) | GI50 [21]: > 100 µM (inactive) | GI50 [22]: 35.6 µM (inactive) | GI50 [23]: 25.1 µM | GI50 [24]: 4.9 µM (inactive) | GI50 [25]: 3.76 µM (inactive) | GI50 [26]: 41.9 µM (inactive) | GI50 [27]: 34.9 µM (inactive) | GI50 [28]: 27.6 µM (inactive) | GI50 [29]: 64.6 µM (inactive) | GI50 [30]: 31.3 µM (inactive) | GI50 [31]: 26.6 µM (inactive) | GI50 [32]: 42.7 µM (inactive) | GI50 [33]: 7.83 µM (inactive) | GI50 [34]: 58.7 µM (inactive) | GI50 [35]: > 100 µM (inactive) | GI50 [36]: 20.1 µM (inactive) | GI50 [37]: > 100 µM (inactive) | GI50 [38]: 2.2 µM (inactive) | GI50 [39]: 39.2 µM (inactive) | GI50 [40]: 11.7 µM (inactive) | GI50 [41]: 9.16 µM (inactive) | GI50 [42]: 2.19 µM (inactive) | GI50 [43]: 50.2 µM (inactive) | GI50 [44]: > 100 µM (inactive) | GI50 [45]: 21.4 µM (inactive) | GI50 [46]: 29.7 µM (inactive) | GI50 [47]: 28.1 µM (inactive) | GI50 [48]: 65.3 µM (inactive) | GI50 [49]: 45.2 µM (inactive) | GI50 [50]: > 100 µM (inactive) | GI50 [51]: > 100 µM (inactive) | GI50 [52]: 16 µM (inactive)
